This assay deals with 233499-124-R-J3-PDC complex spheroid viability, % test/control. Briefly: Anticancer human tumor 233499-124-R-J3-PDC patient-derived colon adenocarcinoma cell line growth inhibition. The conditions noted are these: for viability, T/C: stronger effect = lower value; for IC50: curve of compound. The text has this: Multicellular complex tumor spheroid response to LSD1 Inhibitor Iadademstat in combination with a variety of drugs and investigational agents in selected tumor cell lines
The current study was undertaken to assess response to LSD1 inhibitors in combination with standard-of-care drugs and investigational agents in solid tumor complex spheroid models as well as in the K-562 leukemia. Complex spheroids include a stromal component modeled by human endothelial cells (HUVEC) and fibroblasts modeled by human mesenchymal stem cells (MSCs). The concentration ranges selected for each drug and investigational agent were based upon clinically achievable concentrations if the clinical Cmax of the agent was known.
Compounds. The drugs and investigational agents used in this study are listed on Table 1. All of the agents used, including staurosporine (NSC755774) and gemcitabine (NSC613327), were obtained from the Developmental Therapeutics Program, NCI. FDA-approved anticancer drugs are available from the NCI at http://dtp.nci.nih.gov/branches/dscb/oncology_drugset_explanation.html. Drugs and investigational agents were >95% pure by proton nuclear magnetic resonance (NMR) and liquid chromatography/mass spectrometry (LC/MS). Stock solutions were prepared at 400x in DMSO, stored at -70 degrees C, and diluted in fresh medium prior to their use. The final concentration of DMSO in cell culture wells never exceeded 0.25% (v/v). The FDA-approved anticancer drug set is available from the Developmental Therapeutics Program at https://dtp.cancer.gov/organization/dscb/obtaining/available_plates.htm. All drugs and investigational agents were tested over a range starting from a high concentration at or near the clinical Cmax and decreasing in half-log increments. If the clinical Cmax for an agent had not been determined, the highest concentration tested was 10 microM.
Cell Lines. The patient-derived cancer cell (PDC) lines: 292921-168-R-J2-PDC, K24384-001-R-PDC, and 521955-158-R2-J5-PDC pancreatic carcinomas, 556581-035-R-J1 ovarian carcinoma, 324938-238-R-J1-PDC, 855422-203-R-J1-PDC and 883617-216-R-J1-PDC urothelial bladder carcinomas, 743489-274-T-PDC renal cell carcinoma, 138582-R-J1 Merkel cell tumor, K60290-347-R-J1 and K57222-313-R-J1-PDC glioblastomas, 653999-131-R-J2-PDC, LG0703-F948-PDC, and 349418-098-R-PDC non-small cell lung carcinomas, 885512-296-R-J2-PDC, 171881-019-R-J1-PDC breast carcinomas and 186277-243-T-J2-PDC and 233499-124-R-J2-PDC colon carcinomas were obtained from the NCI Patient-Derived Models Repository (PDMR, https://pdmr.cancer.gov). The established cell lines NCI/ADR-RES (RRID:CVCL_14520 and OVCAR-5 (RRID:CVCL_1628) ovarian carcinomas, 786-O (RRID:CVCL_1051) and A498 (RRID:CVCL_A498) renal cell carcinoma, NCI-H211 (ATCC, cat. CRL-5824; RRID:CVCL_1529), NCI-H196 (ATCC, cat. CRL-5823, RRID:CVCL_1509), SW 1271 (ATCC, cat. CRL-2177, RRID:CVCL_1716) and NCI-H1876 (ATCC, cat. CRL-5902, RRID:CVCL_1503) small cell lung carcinomas, MDA-MB-231 (RRID:CVCL_0062) and MDA-MB-468 (RRID:CVCL_0419)breast carcinomas (10-12). Pooled donor human umbilical vein endothelial cells (HUVEC, Lonza, cat. CC-2519) and human mesenchymal stem cells (hMSC, Lonza, cat. PT-2501) were purchased from Lonza (Walkersville, MD).
Cell Culture. All cells were maintained in an incubator at 37 degrees C and 5% CO2 with 95% humidity. The PDC lines were cultured according to standard operating procedures established by the NCI PDMR (https://pdmr.cancer.gov). Briefly all PDCs were thawed and cultured in Matrigel-coated flasks prepared with a working solution of 1X Ham's F-12 nutrient mix, without supplementation (Invitrogen, Waltham, MA, cat. 11765054), 100 U/mL penicillin-streptomycin (Invitrogen, cat. 15140122), and 2.5% Matrigel (Corning Inc., Corning, NY, cat. 354248) for the first three passages. […]

Where “and” joins values, the source holds several entries; their conditions need not be identical. Equal values may be shown once.
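Note: spheroids exposed to agents for one week before readout.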

With `CC(C)CC(NC(=O)C(Cc1ccccc1)NC(=O)c1cnccn1)B(O)O` (configuration not stated), the IC50 (as a rule, the concentration needed to halve the response being measured) is 2.07 nM and 0.496 nM. Also, the viability, T/C – broadly, the ratio of treated to control – (compound 0.000316 µM) is 96% and 81.8%. For the same molecule, the viability, T/C (compound 0.00316 µM) was 21.4% and 0.26%. Moreover, the viability, T/C (compound 0.01 µM) was 7.18% and 0.25%. Besides, the viability, T/C (compound 0.0316 µM) is 5.21% and 0.25%. For the same molecule, the viability, T/C (compound 0.1 µM) was 3.6% and 0.35%.
As to `CC(C)CC(NC(=O)CNC(=O)c1cc(Cl)ccc1Cl)B1OC(=O)CC(CC(=O)O)(C(=O)O)O1` (configuration not stated), the IC50 was 5.78 nM and 4.92 nM. For the same molecule, the viability, T/C (compound 0.000316 µM) was 90.6% and 106%. For the setting “compound 0.001 µM”, the viability, T/C is 89.8% and 95.7%. Also, where the note is “compound 0.00316 µM”, the viability, T/C is 102% and 78.5%. Also, the viability, T/C (compound 0.01 µM) was 9.9% and 4.05%. Besides, for the setting “compound 0.0316 µM”, the viability, T/C is 7.32% and 0.21%. Moreover, for the setting “compound 0.1 µM”, the viability, T/C is 5.06% and 0.23%.
Consider `CC1(C)CCC(CN2CCN(c3ccc(C(=O)NS(=O)(=O)c4ccc(NCC5CCOCC5)c([N+](=O)[O-])c4)c(Oc4cnc5[nH]ccc5c4)c3)CC2)=C(c2ccc(Cl)cc2)C1`, for which the IC50 was > 10000 nM and 2590 nM. The viability, T/C (compound 0.0316 µM) is 96.6% and 90.8%. Further, the viability, T/C (compound 0.1 µM) was 93.2% and 96.6%. Where the note is “compound 0.316 µM”, the viability, T/C was 118% and 99.7%. For the same molecule, the viability, T/C (compound 1 µM) is 112% and 93.5%. For the same molecule, the viability, T/C (compound 3.16 µM) is 120% and 40.8%.
`CC1COCCN1c1cc(-c2ccnn2C)c2ccnc(-c3ccn[nH]3)c2n1` (configuration not stated): the viability, T/C is 91.4% and 59.2% (compound 0.00316 µM); 93.3% and 48.8% (compound 0.01 µM); 61.6% and 40.6% (compound 0.0316 µM); 34.6% and 38.1% (compound 0.1 µM); 16.5% and 47.6% (compound 0.316 µM); 31.2% and 97.3% (compound 1 µM).
In the case of `CC1COCCN1c1cc(C2(S(C)(=N)=O)CC2)nc(-c2ccnc3[nH]ccc23)n1` (configuration not stated), the IC50 is above 10000 nM. Besides, the viability, T/C (compound 0.0316 µM) was 86% and 97.4%. Moreover, the viability, T/C (compound 0.1 µM) is 92.5% and 98.9%. For the same molecule, the viability, T/C (compound 0.316 µM) is 75.2% and 90.7%. Moreover, the viability, T/C (compound 1 µM) was 65.8% and 86.7%. Besides, the viability, T/C (compound 3.16 µM) is 49.3% and 53.9%. In addition, where the note is “compound 10 µM”, the viability, T/C was 63.4% and 54.3%.
Turning to `CCN(c1cc(-c2ccc(CN3CCOCC3)cc2)cc(C(=O)NCc2c(C)cc(C)[nH]c2=O)c1C)C1CCOCC1`, the IC50 is above 3000 nM. The viability, T/C (compound 0.00949 µM) is 81.1% and 101%. The viability, T/C (compound 0.03 µM) was 86.2% and 103%. In addition, the viability, T/C (compound 0.0949 µM) is 101% and 96%. Further, under “compound 0.3 µM”, the viability, T/C is 103% and 97.8%. Further, the viability, T/C (compound 0.949 µM) was 110% and 83.4%. Further, the viability, T/C (compound 3 µM) was 99.1% and 52.7%.
Consider `CC[C@@]1(O)C(=O)OCc2c1cc1n(c2=O)Cc2cc3c(CN(C)C)c(O)ccc3nc2-1`, for which the IC50 was above 100 nM. For the same molecule, under “compound 0.000316 µM”, the viability, T/C is 79.7% and 94.3%. Besides, for the setting “compound 0.001 µM”, the viability, T/C is 70% and 85.8%. Besides, the viability, T/C (compound 0.00316 µM) was 63.5% and 72.9%. For the same molecule, the viability, T/C (compound 0.01 µM) was 51.6% and 62.8%. Moreover, the viability, T/C (compound 0.0316 µM) is 70% and 69.2%. Also, the viability, T/C (compound 0.1 µM) was 94.3% and 109%.
`CCc1c2c(nc3ccc(O)cc13)-c1cc3c(c(=O)n1C2)COC(=O)[C@]3(O)CC`: the IC50 was 28.4 nM and 21.8 nM. For the same molecule, the viability, T/C (compound 0.000949 µM) is 91.8% and 92.6%. The viability, T/C (compound 0.003 µM) was 106% and 117%. Besides, under “compound 0.00949 µM”, the viability, T/C was 101% and 94%. Besides, the viability, T/C (compound 0.03 µM) was 47.5% and 33.5%. Besides, the viability, T/C (compound 0.0949 µM) is 16.6% and 32.4%. Besides, under “compound 0.3 µM”, the viability, T/C was 26.7% and 28.5%.
`COc1cc(C2c3cc4c(cc3C(OC3OC5COC(C)OC5C(O)C3O)C3COC(=O)C23)OCO4)cc(OC)c1O` (configuration not stated): the IC50 is above 3000 nM. Also, the viability, T/C (compound 0.00949 µM) is 90.2% and 92.1%. Besides, under “compound 0.03 µM”, the viability, T/C was 91.5% and 80.9%. The viability, T/C (compound 0.0949 µM) was 97.4% and 88.9%. Moreover, the viability, T/C (compound 0.3 µM) is 89% and 59.5%. The viability, T/C (compound 0.949 µM) is 65.2% and 53.7%. Further, the viability, T/C (compound 3 µM) was 59% and 47.7%.
For `COc1cc(Nc2ncc3c(n2)-c2ccc(Cl)cc2C(c2c(F)cccc2OC)=NC3)ccc1C(=O)O`, the IC50 is below 3.16 nM. Moreover, the viability, T/C (compound 0.00316 µM) was 43.2%. The viability, T/C (compound 0.01 µM) is 61%. Further, the viability, T/C (compound 0.0316 µM) is 55.2%. Under “compound 0.1 µM”, the viability, T/C is 63.2%. For the setting “compound 0.316 µM”, the viability, T/C is 63.9%. For the same molecule, the viability, T/C (compound 1 µM) is 84.3%.
